Assays:
Btk = Btk (Homo sapiens (Human), UniProt Q06187); test: Btk acellular kinase assay (TR-FRET)
DHL-6 cells = test: Growth of DHL-6 cells (Alamar Blue); format: cell-based; details: 24 h or 48 h treatment

Chain of Btk (Q06187 whole entry): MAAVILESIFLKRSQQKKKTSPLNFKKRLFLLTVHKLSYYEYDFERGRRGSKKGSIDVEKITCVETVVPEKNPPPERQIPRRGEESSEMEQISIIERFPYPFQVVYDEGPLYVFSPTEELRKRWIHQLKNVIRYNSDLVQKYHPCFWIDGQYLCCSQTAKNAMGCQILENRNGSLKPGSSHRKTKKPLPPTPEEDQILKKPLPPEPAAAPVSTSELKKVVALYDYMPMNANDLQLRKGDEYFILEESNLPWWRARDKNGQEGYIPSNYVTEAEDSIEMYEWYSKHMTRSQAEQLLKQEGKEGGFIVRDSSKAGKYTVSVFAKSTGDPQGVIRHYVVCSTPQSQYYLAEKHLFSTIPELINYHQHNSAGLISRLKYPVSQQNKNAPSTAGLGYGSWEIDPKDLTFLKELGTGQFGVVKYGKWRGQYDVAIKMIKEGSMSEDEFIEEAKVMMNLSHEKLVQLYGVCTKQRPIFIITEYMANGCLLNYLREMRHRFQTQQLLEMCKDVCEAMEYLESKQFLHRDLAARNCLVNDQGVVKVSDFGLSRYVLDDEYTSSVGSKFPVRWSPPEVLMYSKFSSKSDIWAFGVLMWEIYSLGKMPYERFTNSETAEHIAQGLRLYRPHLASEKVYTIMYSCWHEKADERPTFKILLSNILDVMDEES

Structure (SMILES)	fold less potent than compound 4 (Btk; Btk potency) [fold]	growth of DHL-6 cells (DHL-6 cells)	IC50 (Btk; read-out: Btk IC50, acellular TR-FRET kinase assay, [ATP]=Km) [nM]
C/C=C/C(=O)N1CCCC(n2nc(-c3ccc(Oc4ccccc4)cc3)c3c(N)ncnc32)C1 (stereo not drawn) [Compound 5, (E)-1-(3-(4-amino-3-(4-phenoxyphenyl)-1H-pyrazolo[3,4-d]pyrimidin-1-yl)piperidin-1-yl)but-2-en-1-one]	28	–	–
CN(C)C/C=C/C(=O)N1CCC[C@@H](n2nc(-c3ccc(Oc4ccccc4)cc3)c3c(N)ncnc32)C1 [Compound 15, (E)-1-(3-(4-amino-3-(4-phenoxyphenyl)-1H-pyrazolo[3,4-d]pyrimidin-1-yl)piperidin-1-yl)-4-(dimethylamino)but-2-en-1-one]	–	inhibit growth	2.5

Reference: patent US9133201B2, “Inhibitors of Bruton's tyrosine kinase” (Pharmacyclics, Inc., priority 2006, dated 2015)
